Experimental data: ChEMBL document CHEMBL1201862, “PubChem BioAssay data set” (2004)
Calls of active or inactive are those of the source.

Tests used:
Vero = assay: cells; format: functional; conditions: Chlorocebus sabaeus
Nonstructural protein 1 = Nonstructural protein 1 (Influenza A virus, UniProt Q194T2); format: functional, Influenza A virus (A/California/07/2009(H1N1))
[1] = biological target: FAD-linked sulfhydryl oxidase ALR (Homo sapiens, UniProt P55789); assay: inhibitors of human ALR sulfhydryl oxidase, dose response, biochemical, H2O2 detection, luminescence, cherry-pick (AID 493248)
[2] = biological target: T1, Carboxy-terminal domain RNA polymerase II polypeptide A small phosphatase 1 (Homo sapiens, UniProt Q9GZU7); assay: inhibitors of CTDSP1, concentration-response testing, biochemical assay, absorbance-based, actives from ultra-high-throughput screening (AID 540297); format: functional
T1 sequence (Q9GZU7 whole entry): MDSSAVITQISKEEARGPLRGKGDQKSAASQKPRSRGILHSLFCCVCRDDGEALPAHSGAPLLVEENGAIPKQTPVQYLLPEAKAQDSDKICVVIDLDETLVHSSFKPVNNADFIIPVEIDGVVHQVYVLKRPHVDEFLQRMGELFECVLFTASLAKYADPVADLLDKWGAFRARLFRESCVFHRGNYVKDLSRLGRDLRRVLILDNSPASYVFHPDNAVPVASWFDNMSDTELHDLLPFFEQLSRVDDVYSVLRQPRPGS

Genome polyprotein = Genome polyprotein (dengue virus type 2, UniProt P29990); assay: Dengue-2 NS5 methyltransferase inhibitors, primary screen, biochemical, confirmation dose response (AID 588689); format: functional
[3] = biological target: T2, Rac GTPase-activating protein 1 (Homo sapiens, UniProt Q9H0H5); assay: MgcRacGAP GTPase-activating activity inhibitors, confirmation, biochemical, ADP Hunter fluorescence, primary and confirmatory (AID 624330); format: functional
T2 sequence (Q9H0H5 whole entry): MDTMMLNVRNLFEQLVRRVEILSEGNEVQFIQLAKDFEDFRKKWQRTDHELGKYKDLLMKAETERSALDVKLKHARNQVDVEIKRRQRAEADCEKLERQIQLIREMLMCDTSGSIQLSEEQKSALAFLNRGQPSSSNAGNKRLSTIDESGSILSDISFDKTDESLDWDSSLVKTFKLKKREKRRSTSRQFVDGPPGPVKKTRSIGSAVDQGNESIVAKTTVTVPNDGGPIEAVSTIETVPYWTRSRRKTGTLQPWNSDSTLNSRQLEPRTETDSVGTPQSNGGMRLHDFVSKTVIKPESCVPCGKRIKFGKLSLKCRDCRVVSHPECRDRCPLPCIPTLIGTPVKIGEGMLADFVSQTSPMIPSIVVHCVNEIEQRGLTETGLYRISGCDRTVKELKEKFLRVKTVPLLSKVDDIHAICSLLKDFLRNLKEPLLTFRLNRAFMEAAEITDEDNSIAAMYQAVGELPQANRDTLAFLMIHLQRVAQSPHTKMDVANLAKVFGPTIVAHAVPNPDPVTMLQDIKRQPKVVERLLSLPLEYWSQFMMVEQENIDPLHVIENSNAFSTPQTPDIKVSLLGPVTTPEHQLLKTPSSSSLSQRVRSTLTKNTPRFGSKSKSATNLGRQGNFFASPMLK

[4] = biological target: T3, Replicative DNA helicase DnaB (Mycobacterium tuberculosis, UniProt P9WMR3); assay: DnaB intein splicing inhibitors, dose response, biochemical, cell-free fluorescence (AID 449749); format: functional
T3 sequence (P9WMR3 whole entry): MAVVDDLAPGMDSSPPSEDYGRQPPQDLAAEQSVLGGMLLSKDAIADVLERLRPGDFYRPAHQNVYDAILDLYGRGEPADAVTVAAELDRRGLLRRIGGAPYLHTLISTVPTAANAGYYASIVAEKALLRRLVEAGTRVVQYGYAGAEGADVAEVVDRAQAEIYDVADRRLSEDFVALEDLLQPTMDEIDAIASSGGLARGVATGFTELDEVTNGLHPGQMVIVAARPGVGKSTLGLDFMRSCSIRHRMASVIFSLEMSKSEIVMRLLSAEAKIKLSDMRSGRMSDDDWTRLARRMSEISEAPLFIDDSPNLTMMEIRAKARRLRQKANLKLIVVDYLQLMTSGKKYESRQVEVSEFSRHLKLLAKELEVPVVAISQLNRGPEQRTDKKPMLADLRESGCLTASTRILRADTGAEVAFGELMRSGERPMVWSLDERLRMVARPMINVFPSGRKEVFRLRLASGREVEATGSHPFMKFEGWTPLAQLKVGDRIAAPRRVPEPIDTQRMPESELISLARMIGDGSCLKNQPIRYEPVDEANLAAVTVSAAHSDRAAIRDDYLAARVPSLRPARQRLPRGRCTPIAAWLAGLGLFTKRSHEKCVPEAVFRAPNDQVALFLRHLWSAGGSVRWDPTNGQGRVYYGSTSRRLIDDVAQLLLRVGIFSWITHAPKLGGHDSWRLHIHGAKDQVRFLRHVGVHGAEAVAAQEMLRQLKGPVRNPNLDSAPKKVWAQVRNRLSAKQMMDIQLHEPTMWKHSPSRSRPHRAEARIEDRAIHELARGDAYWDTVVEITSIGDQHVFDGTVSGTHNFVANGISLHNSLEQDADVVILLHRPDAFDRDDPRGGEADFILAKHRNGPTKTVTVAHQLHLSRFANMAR

Protein RecA = biological target: T4, Protein RecA (Mycobacterium tuberculosis, UniProt P9WHJ3); assay: Fluorescence Cell-Free Homogeneous Dose Retest to Identify Inhibitors of RecA-Intein Splicing Activity. [Related pubchem assays (depositor defined):AID2097, AID2223, AID489010, AID492950]; format: functional
T4 sequence (P9WHJ3 whole entry): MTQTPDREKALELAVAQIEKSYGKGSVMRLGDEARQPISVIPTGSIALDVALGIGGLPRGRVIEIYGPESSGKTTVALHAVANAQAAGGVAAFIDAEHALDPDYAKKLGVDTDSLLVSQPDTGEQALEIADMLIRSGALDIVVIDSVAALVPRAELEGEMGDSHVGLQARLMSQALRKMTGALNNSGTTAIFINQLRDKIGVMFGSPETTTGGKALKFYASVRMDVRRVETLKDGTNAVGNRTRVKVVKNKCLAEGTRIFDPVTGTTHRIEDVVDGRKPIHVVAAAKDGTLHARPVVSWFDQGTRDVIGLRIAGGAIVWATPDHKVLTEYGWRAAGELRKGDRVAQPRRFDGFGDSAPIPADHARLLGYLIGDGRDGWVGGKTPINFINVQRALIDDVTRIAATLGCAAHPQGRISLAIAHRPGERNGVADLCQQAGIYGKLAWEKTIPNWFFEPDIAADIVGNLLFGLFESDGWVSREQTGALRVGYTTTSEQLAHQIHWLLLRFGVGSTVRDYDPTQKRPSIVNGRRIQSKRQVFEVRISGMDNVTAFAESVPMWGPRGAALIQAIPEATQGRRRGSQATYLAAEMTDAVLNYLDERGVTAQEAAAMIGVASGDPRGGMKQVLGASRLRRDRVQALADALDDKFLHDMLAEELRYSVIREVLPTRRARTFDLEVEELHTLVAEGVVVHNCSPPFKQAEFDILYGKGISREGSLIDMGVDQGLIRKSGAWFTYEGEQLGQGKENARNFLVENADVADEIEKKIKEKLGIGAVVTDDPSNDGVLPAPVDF

Sequence of FAD-linked sulfhydryl oxidase ALR (P55789 whole entry, the tested form may be a part): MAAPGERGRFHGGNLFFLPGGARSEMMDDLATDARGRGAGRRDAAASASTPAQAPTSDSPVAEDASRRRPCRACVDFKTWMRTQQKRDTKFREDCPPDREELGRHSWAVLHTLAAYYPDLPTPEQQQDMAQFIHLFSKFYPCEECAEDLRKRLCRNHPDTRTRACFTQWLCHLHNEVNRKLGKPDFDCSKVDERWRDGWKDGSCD
Sequence of Nonstructural protein 1 (Q194T2 whole entry): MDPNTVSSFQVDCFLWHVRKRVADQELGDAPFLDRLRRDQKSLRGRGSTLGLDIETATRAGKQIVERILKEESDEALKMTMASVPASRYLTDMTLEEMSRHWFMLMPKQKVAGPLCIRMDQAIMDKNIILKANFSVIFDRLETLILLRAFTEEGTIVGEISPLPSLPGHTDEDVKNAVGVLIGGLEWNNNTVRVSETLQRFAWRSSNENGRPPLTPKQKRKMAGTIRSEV
Sequence of Genome polyprotein (P29990 2492-3391 limits assumed): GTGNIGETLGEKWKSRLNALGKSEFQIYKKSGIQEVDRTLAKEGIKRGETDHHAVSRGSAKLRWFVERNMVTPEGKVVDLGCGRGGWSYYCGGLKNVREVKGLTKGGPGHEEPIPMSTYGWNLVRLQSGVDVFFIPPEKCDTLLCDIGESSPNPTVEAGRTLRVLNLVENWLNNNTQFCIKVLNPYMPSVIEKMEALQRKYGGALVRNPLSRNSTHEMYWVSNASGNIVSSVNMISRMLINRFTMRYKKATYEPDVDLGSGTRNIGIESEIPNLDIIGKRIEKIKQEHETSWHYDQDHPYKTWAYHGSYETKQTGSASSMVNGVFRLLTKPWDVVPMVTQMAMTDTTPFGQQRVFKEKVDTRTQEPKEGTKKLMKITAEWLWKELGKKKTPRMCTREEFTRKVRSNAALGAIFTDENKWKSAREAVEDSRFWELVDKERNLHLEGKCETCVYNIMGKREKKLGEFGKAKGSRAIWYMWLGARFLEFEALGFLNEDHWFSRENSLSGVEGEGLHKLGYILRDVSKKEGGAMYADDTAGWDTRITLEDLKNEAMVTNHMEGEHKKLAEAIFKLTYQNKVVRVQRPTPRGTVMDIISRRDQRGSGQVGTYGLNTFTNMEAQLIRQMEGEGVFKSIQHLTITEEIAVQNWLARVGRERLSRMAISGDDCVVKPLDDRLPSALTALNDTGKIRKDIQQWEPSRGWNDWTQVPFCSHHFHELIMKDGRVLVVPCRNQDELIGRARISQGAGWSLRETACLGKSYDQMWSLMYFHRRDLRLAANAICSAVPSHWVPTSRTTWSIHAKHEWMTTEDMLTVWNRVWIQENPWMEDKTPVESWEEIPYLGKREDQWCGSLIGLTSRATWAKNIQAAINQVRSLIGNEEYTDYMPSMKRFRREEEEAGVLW

Cc1nn(Cc2cccc(C(=O)NC3CCCCC3)c2)c(C)c1Cl
CC50 (Vero): > 25 µM (active)

N#C/C(=C\c1ccccc1[N+](=O)[O-])c1nc(C2CC2)cs1
IC50 (Nonstructural protein 1): 75.1 µM (active)

CCN(CC)CCNc1nc(-c2ccc(OC)cc2)c(-c2ccc(OC)cc2)s1
CC50 (Vero): > 25 µM (active)

COc1ccc(CSC2=NCCN2)cc1Br
AC50 [1]: 0.007 µM (active)

Oc1ccc2ccccc2c1N=Nc1ccc(F)cc1
IC50 (Nonstructural protein 1): 16.2 µM (active)

Cc1cc2c(s1)Nc1ccccc1N=C2N1CCN(C)CC1 [OLANZAPINE]
AC50 [1]: 0.369 µM (active)

O=C1CC(NNc2ccccc2)C(=O)N1c1cccc(Cl)c1 (stereo not drawn)
AC50 [1]: 0.319 µM (active)

CS(=O)(=O)C1=NN2C(=N)/C(=C\c3ccc(OCCOc4ccccc4)cc3)C(=O)N=C2S1
IC50 [2]: 6.76 µM (active)

CC1CC/C(=N/Nc2ccccc2)C(=O)N1 (stereo not drawn)
AC50 [1]: 0.623 µM (active)

Nc1ccc(NC(=O)c2ccco2)c(Cl)c1
AC50 [1]: 1.72 µM (active)

CCc1ccc(-c2csc3[n+]2CCN3C(C)=O)cc1
AC50 [1]: 3.62 µM (active)

CCOC(=O)C1(C)C(N=Nc2cccc(Cl)c2)=C(O)C(=O)N1c1ccccc1 (stereo not drawn)
IC50 (Genome polyprotein): 18.4 µM (active)

Cc1c(CCC(=O)N[C@@H](C)C(=O)O)c(=O)oc2c(C)c3oc4c(c3cc12)CCCC4
AC50 [1]: 3.72 µM (active)

COc1ccccc1/C=C1/C(=O)N(c2ccccc2)N=C1C
IC50 [3]: 119 µM (active)
AC50 [4]: 96.6 µM (active)
IC50 (Genome polyprotein): 90.2 µM (active)
EC50 (Protein RecA): 0.0356 µM (active)

NC(=NO)c1ccc(NC(=O)c2ccc(Br)o2)cc1
AC50 [1]: 0.16 µM (active)
